According to patent publication US20250154157A1, “HETEROCYCLIC COMPOUNDS USEFUL FOR TREATING A ERK5-MEDIATED DISEASE” (Cancer Research Technology Limited, priority 2022, published 2025):

Key:
Assay type in all cases: cell-based
[1] = system: EMT, angiogenesis and pro-tumour inflammation genes (N-cadherin, cytokeratin, B1-integrin, VEGF, IL6, IL1b, E-cadherin); assay: qRT-PCR, mRNA levels of EMT, angiogenesis and inflammatory regulators in TNBC cell lines (FIG. 11)
Text: qRT-PCR: Total RNA was isolated from cells using TRIZOL and/or the miRNeasy mini kit (Qiagen). We carried out cDNA synthesis as previously described by Green, D., Eyre, H., Singh, A. et al (Targeting the MAPK7/MMP9 axis for metastasis in primary bone cancer. Oncogene 39, 5553-5569 (2020)). We performed qPCR using the SYBR Green I core kit (Eurogentec). PCR products were detected in the ABI PRISM® 7700 sequence detection system (Thermo Fisher Scientific). We analysed results using the […]. Gene expression was normalised to PGK1 or ACTB.
Relative mRNA levels, compared to internal control PGK1 or ACTB, in three triple negative breast cancer cell lines: MDA-MB-231, MDA-MB-468 and SUM159.

[2] = system: TNBC cells (MDA-MB-231, MDA-MB-468 and SUM159); assay: Immunofluorescence, morphology of TNBC cells (FIG. 10); settings: 1 μM OS1 or 2.5 μM AX15836; MDA-MB-231, MDA-MB-468, SUM159
Description: (§1) Cells were seeded and treated. Media was aspirated, cells were washed with PBS and subsequently fixed in 10% formalin for 10 minutes. Fixed cells were washed in PBS and then permeablised with 0.1% (v/v) Triton-100 in PBS for 10 minutes. Cells were washed with PBS and the non-specific binding sites were blocked by incubating with 1% BSA for 30 minutes. Targets of interested were identified by incubating with 100 μl of primary antibody diluted in 1% BSA (see table) overnight at 4° C. After washing with PBS, samples were further incubated with species specific secondary antibody coupled to fluorescent tags (see antibody table) for 1 hour in the dark at room temperature. Some samples were further incubated with 100 μl of 1:200 phalloidin (Invitrogen, A12381) in 1% BSA for 2 hours at room temperature to identify actin filament structures. The EZ-slides casing was dismantled as described in manufacturer's instruction and slides were washed in distilled H2O. Samples were incubated with one drop of Mounting Medium with DAPI (abcam) for 5 minutes in the dark at room temperature to visualise the nuclei. A coverslip was added to each slide and allowed to dry at room temperature. Images were acquired on a 3D-Histech Pannoramic-250 microscope slide-scanner using a 20×/0.80 Plan Apochromat objective (Zeiss) and the DAPI, FITC and TRITC filter sets. […] Images were then processed and analysed using ImageJ. […]

BRD4 [3] = biological target: T1, BRD4 (Homo sapiens, UniProt O60885); assay: Repeated dosing of OS1 up to 2 weeks, immunoblotting (FIG. 9): BRD4; parameters: endogenous in cells; settings: 1 μM every 48 h for up to two weeks, TNBC cell lines
Description: (§2) We extracted proteins in RIPA assay buffer containing protease and phosphatase inhibitors. We resolved extracts (30 μg) by SDS/PAGE and electrophoretically transferred to an Immun-Blot® PVDF membrane (Bio-Rad). Membranes were saturated in 3% non-fat dry milk or 3% BSA and probed overnight at 4° C. with antibodies (1:1,000 dilution unless otherwise indicated) to ERK5, BRD4, MEK5 and β-actin. We detected immunocomplexes by enhanced chemiluminescence with IgG coupled to horseradish peroxidase as the secondary anti-rabbit and anti-mouse antibodies (Abcam).

ERK5 [4] = biological target: T2, ERK5 (Homo sapiens, UniProt Q13164); assay: Immunoblotting, 8 point dose response to OS1 in 3 TNBC cell lines (FIG. 8): ERK5 levels; parameters: endogenous in cells; host or cells: MDA-MB-231, MDA-MB-468, SUM159
T2 sequence (Q13164 whole entry): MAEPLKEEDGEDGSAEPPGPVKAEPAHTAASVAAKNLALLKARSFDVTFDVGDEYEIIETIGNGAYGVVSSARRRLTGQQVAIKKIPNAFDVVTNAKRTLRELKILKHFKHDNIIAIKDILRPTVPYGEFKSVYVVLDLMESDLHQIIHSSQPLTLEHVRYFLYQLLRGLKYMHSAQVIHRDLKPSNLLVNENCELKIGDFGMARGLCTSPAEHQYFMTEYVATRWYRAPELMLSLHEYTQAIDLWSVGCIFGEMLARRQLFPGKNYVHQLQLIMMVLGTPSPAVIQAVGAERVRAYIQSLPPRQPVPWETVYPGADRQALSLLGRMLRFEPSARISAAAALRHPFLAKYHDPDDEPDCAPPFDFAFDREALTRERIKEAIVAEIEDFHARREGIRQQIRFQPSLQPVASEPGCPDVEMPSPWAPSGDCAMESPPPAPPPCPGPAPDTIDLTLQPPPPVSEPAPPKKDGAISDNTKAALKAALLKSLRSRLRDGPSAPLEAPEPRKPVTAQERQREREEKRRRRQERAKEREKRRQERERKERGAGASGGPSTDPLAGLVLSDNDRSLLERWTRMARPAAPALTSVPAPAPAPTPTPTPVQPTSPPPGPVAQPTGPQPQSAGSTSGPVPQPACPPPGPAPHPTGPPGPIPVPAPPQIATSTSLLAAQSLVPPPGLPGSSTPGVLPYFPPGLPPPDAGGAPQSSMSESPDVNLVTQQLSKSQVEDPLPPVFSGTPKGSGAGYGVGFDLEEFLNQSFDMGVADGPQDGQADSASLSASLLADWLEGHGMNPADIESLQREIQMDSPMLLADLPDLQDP
Description: as §2, with “ERK5, P-ERK5, ERK1/2,” for “ERK5,”
(§3) Left hand side panels are Western blot images, showing the relative expression of proteins in response to a range of doses of OS1. Right hand side panels are graphs quantifying the western blot images to show ERK5, phospho-ERK5, ERK1/2 and BRD4 protein levels relative to the loading control β-actin.

ERK1/2 [5] = assay: Immunoblotting, specificity testing in 3 TNBC cell lines (FIG. 8): ERK1/2 levels; settings: range of doses
Description: as §2, with “ERK5, P-ERK5, ERK1/2,” for “ERK5,”
as §3

p-ERK5 = biological target: T3, p-ERK5 (Homo sapiens, UniProt Q13164); assay: Immunoblotting in 3 TNBC cell lines (FIG. 8): phospho-ERK5 levels; settings: at higher doses
T3 construct: endogenous in cells; host or cells: MDA-MB-231, MDA-MB-468, SUM159
T3 sequence (Q13164 whole entry): as above
Description: as §2, with “ERK5, P-ERK5, ERK1/2,” for “ERK5,”
as §3

ERK1/2 [6] = assay: Repeated dosing of OS1 up to 2 weeks, immunoblotting (FIG. 9): ERK1/2; settings: 1 μM every 48 h for up to two weeks, TNBC cell lines
ERK5 [7] = biological target: T2, ERK5; assay: Immunoblotting, comparison with Example 7 of WO2021061894 in MDA-MB-468 cells (FIGS. 12 and 13): ERK5; parameters: endogenous in cells; host or cells: MDA-MB-468; settings: 48 hours after a single dose, relative to b-actin
Description: as §2
(§4) OS1 and OS11 degrade EKR5 at lower concentrations than Comparative Example 7. OS1 is efficacious at degrading ERK5 at doses of 0.1 μM and OS11 at 0.01 μM. In contrast, a dose of 5 μM of Comparative Example 7 is required to achieve analogous ERK5 degradation to 0.1 μM OS1 or 0.01 μM OS11.

ERK5 [8] = biological target: T2, ERK5; assay: Immunofluorescence, ERK5 staining in TNBC cells (FIG. 10); parameters: endogenous in cells; host or cells: MDA-MB-231, MDA-MB-468, SUM159; settings: 1 μM OS1, TNBC cell lines
Description: as §1

BRD4 [9] = biological target: T1, BRD4; assay: Immunoblotting, specificity testing in 3 TNBC cell lines (FIG. 8): BRD4 levels; parameters: endogenous in cells; settings: range of doses
Description: as §2, with “ERK5, P-ERK5, ERK1/2,” for “ERK5,”
as §3

BRD4 [10] = biological target: T1, BRD4; assay: Immunoblotting, comparison with Example 7 of WO2021061894 in MDA-MB-468 cells (FIGS. 12 and 13): BRD4; parameters: endogenous in cells; host or cells: MDA-MB-231, MDA-MB-468, SUM159; settings: 48 hours after a single dose, Comparative Example 7 at 5 μM
Description: as §2, §4

MEK5 = biological target: T4, MEK5 (Homo sapiens, UniProt Q13163); assay: Repeated dosing of OS1 up to 2 weeks, immunoblotting (FIG. 9): MEK5; settings: 1 μM every 48 h for up to two weeks, TNBC cell lines
T4 construct: endogenous in cells; host or cells: MDA-MB-231, MDA-MB-468, SUM159
T4 sequence (Q13163 1-448): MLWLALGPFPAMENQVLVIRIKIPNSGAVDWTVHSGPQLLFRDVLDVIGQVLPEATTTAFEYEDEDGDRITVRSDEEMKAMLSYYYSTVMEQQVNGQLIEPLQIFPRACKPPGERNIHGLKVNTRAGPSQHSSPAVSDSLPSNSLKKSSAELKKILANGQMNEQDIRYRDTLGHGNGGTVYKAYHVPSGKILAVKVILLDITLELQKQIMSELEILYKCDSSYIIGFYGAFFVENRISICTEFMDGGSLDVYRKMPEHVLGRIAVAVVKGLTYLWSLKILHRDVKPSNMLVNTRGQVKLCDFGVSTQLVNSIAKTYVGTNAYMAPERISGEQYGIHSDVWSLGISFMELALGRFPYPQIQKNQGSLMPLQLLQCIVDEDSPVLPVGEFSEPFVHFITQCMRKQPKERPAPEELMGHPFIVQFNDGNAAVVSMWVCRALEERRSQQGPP
Description: as §2

[11] = 24 h treatment, mRNA relative to PGK1 or ACTB, three TNBC cell lines

effect of repeated dosing on BRD4 (BRD4 [3]) | dose inducing the hook effect (ERK5 [4]; TNBC cell lines) | most effective dose for ERK5 degradation (ERK5 [4]; TNBC cell lines) | ERK5 degraded (ERK5 [4]; range of TNBC cell lines (MDA-MB-231, MDA-MB-468, SUM159), western blot relative to β-actin) | kinase inhibitor activity (p-ERK5 on immunoblot) (p-ERK5) | dose efficacious at degrading ERK5 (analogous ERK5 degradation) (ERK5 [7]) | ERK5 staining (green), immunofluorescence (ERK5 [8]) | off target effects on known off-target of literature ERK5 inhibitors (BRD4) (BRD4 [9]) | degradation of off-target BRD4 (BRD4 [10]) | effect of repeated dosing on MEK5 (MEK5) | SMILES | expression of genes that promote EMT, migration and metastatic behaviour (N-cadherin, cytokeratin, B1-integrin), angiogenesis (VEGF) and pro-tumour inflammation (IL6, IL1b) [1, 11] | effect on morphology of TNBC cells [2] | off target effects on structurally similar proteins (ERK1/2) (ERK1/2 [5]) | dose most effective in affecting gene expression ([1]; 0.1 or 1 μM tested, 24 h) | expression of genes that block EMT, migration and metastatic behaviour (E-cadherin) [1, 11] | effect of repeated dosing on ERK1/2 (ERK1/2 [6])
– | – | – | – | – | – | – | – | – | – | CCOc1cc(C(=O)N2CCC(N3CCN(C)CC3)CC2)ccc1Nc1ncc2c(n1)N(S(C)(=O)=O)c1ccccc1C(=O)N2C [AX15836, 5,11-Dihydro-2-[[2-ethoxy-4-[[4-(4-methyl-1-piperazinyl)-1-piperidinyl]carbonyl]phenyl]amino]-5-methyl,11-(methylsulfonyl)-6H-pyrimido[4,5-b][1,4]benzodiazepin-6-one, reference compound] | not | does not | – | – | – | –
no effect | 10 µM | 1 µM | > 90% | reduction in p-ERK5 | 0.1 μM | loss of ERK5 staining | no off target effects | do not cause degradation | unaffected | CCOc1cc(C(=O)N2CCC(N3CCN(CCCCCc4cccc5c4C(=O)N(C4CCC(=O)NC4=O)C5=O)CC3)CC2)ccc1Nc1ncc2c(n1)N(S(C)(=O)=O)c1ccccc1C(=O)N2C (stereo not drawn) [OS1, 2-(2,6-Dioxopiperidin-3-yl)-4-(5-(4-(1-(3-ethoxy-4-((5-methyl-11-(methylsulfonyl)-6-oxo-6,11-dihydro-5H-benzo[e]pyrimido[5,4-b][1,4]diazepin-2-yl)amino)benzoyl)piperidin-4-yl)piperazin-1-yl)pentyl)isoindoline-1,3-dione] | induces a loss of expression | affects morphology | no off target effects | 1 µM | increase in expression | no effect
